Results taken from ChEMBL document CHEMBL3758179, “Baicalin Alleviates Silica-Induced Lung Inflammation and Fibrosis by Inhibiting the Th17 Response in C57BL/6 Mice” (2015).
Calls of active or inactive are those of the source. The calls are words filed in the database; no cut-off is given here.

Experiments:
[1] = test system: Mus musculus; assay: Antiinflammatory activity in C57BL/6 mouse silicosis model assessed as reduction in silica-induced accumulation of total cells in bronchoalveolar lavage fluid at 2 mg, ip administered every day measured on day 7,28 and 56 by Giemsa staining method; format: functional, organism-based
[2] = test system: Mus musculus; assay: Antiinflammatory activity in C57BL/6 mouse silicosis model assessed as reduction in silica-induced accumulation of neutrophils in bronchoalveolar lavage fluid at 2 mg, ip administered every day measured on day 7 by Giemsa staining method; format: functional, organism-based
[3] = test system: Mus musculus; assay: Antiinflammatory activity in C57BL/6 mouse silicosis model assessed as silica-induced accumulation of lymphocytes in bronchoalveolar lavage fluid at 2 mg, ip administered every day measured on day 7,28 and 56 by Giemsa staining method; format: functional, organism-based
[4] = test system: Mus musculus; assay: Antiinflammatory activity in C57BL/6 mouse silicosis model assessed as silica-induced accumulation of macrophages in bronchoalveolar lavage fluid at 2 mg, ip administered every day measured on day 7,28 and 56 by Giemsa staining method; format: functional, organism-based
[5] = test system: Mus musculus; assay: Antiinflammatory activity in C57BL/6 mouse silicosis model assessed as reduction in alveolar wall change at 2 mg, ip administered every day measured on day 7,28 and 56 by haematoxylin and eosin staining-based light microscopic analysis relative to silica-treated control; format: functional, organism-based
[6] = test system: Mus musculus; assay: Antiinflammatory activity in C57BL/6 mouse silicosis model assessed as reduction in inflammatory cell infiltration at 2 mg, ip administered every day measured on day 7,28 and 56 by haematoxylin and eosin staining-based light microscopic analysis relative to silica-treated control; format: functional, organism-based
[7] = test system: Mus musculus; assay: Inhibition of silica-induced lung fibrosis in C57BL/6 mouse silicosis model at 2 mg, ip administered every day measured on day 28 to 56 by Masson staining-based light microscopic analysis; format: functional, organism-based
[8] = test system: Mus musculus; assay: Inhibition of Th17 response in hilar lymph node in silica-induced C57BL/6 mouse lung inflammation and fibrosis model assessed as decrease in level of CD4+T cells coexpressing IL-17A at 2 mg, ip administered every day measured on day 7 by flow cytometric analysis (reference value: 1.08 +/- 0.07%); format: functional, CD4+T cell
[9] = test system: Mus musculus; assay: Inhibition of Th17 response in hilar lymph node in silica-induced C57BL/6 mouse lung inflammation and fibrosis model assessed as decrease in level of CD4+T cells coexpressing IL-17A at 2 mg, ip administered every day measured on day 28 by flow cytometric analysis (reference value: 0.76 +/- 0.07%); format: functional, CD4+T cell
[10] = test system: Mus musculus; assay: Inhibition of Th17 response in spleen in silica-induced C57BL/6 mouse lung inflammation and fibrosis model assessed as decrease in level of CD4+T cells coexpressing IL-17A at 2 mg, ip administered every day measured on day 7 by flow cytometric analysis (reference value: 0.9 +/- 0.11%); format: functional, CD4+T cell
[11] = test system: Mus musculus; assay: Inhibition of Th17 response in spleen in silica-induced C57BL/6 mouse lung inflammation and fibrosis model assessed as decrease in level of CD4+T cells coexpressing IL-17A at 2 mg, ip administered every day measured on day 28 by flow cytometric analysis (reference value: 0.68 +/- 0.07%); format: functional, CD4+T cell
[12] = test system: Mus musculus; assay: Inhibition of Th17 response in spleen in silica-induced C57BL/6 mouse lung inflammation and fibrosis model assessed as decrease in level of CD4+T cells coexpressing IL-17A at 2 mg, ip administered every day measured on day 56 by flow cytometric analysis (reference value: 0.6 +/- 0.03%); format: functional, CD4+T cell
[13] = test system: Mus musculus; assay: Inhibition of Th17 response in silica-induced C57BL/6 mouse lung inflammation and fibrosis model assessed as decrease in IL-17A mRNA expression in lung at 2 mg, ip administered every day measured on day 7 by real time RT-PCR method relative to silica-treated control; format: functional, organism-based
[14] = test system: Mus musculus; assay: Inhibition of Th17 response in silica-induced C57BL/6 mouse lung inflammation and fibrosis model assessed as decrease in RORgammat mRNA expression in spleen at 2 mg, ip administered every day measured on day 7, 28, 56 by real time RT-PCR method relative to silica-treated control; format: functional, organism-based
[15] = test system: Mus musculus; assay: Induction of Treg response in silica-induced C57BL/6 mouse lung inflammation and fibrosis model assessed as increase in level of CD4+T cells coexpressing Foxp3 in hilar lymph node at 2 mg, ip administered every day measured on day 7 by flow cytometric analysis (reference value: 12.14 +/- 0.53%); format: functional, CD4+T cell
[16] = test system: Mus musculus; assay: Induction of Treg response in silica-induced C57BL/6 mouse lung inflammation and fibrosis model assessed as increase in level of CD4+T cells coexpressing Foxp3 in hilar lymph node at 2 mg, ip administered every day measured on day 28 by flow cytometric analysis (reference value: 8.18 +/- 0.61%); format: functional, CD4+T cell
[17] = test system: Mus musculus; assay: Induction of Treg response in silica-induced C57BL/6 mouse lung inflammation and fibrosis model assessed as increase in level of CD4+T cells coexpressing Foxp3 in hilar lymph node at 2 mg, ip administered every day measured on day 56 by flow cytometric analysis (reference value: 8.76 +/- 0.23%); format: functional, CD4+T cell
[18] = test system: Mus musculus; assay: Induction of Treg response in silica-induced C57BL/6 mouse lung inflammation and fibrosis model assessed as increase in level of CD4+T cells coexpressing Foxp3 in spleen at 2 mg, ip administered every day measured on day 7 by flow cytometric analysis (reference value: 11.75 +/- 1.03%); format: functional, CD4+T cell
[19] = test system: Mus musculus; assay: Induction of Treg response in silica-induced C57BL/6 mouse lung inflammation and fibrosis model assessed as increase in level of CD4+T cells coexpressing Foxp3 in spleen at 2 mg, ip administered every day measured on day 28 by flow cytometric analysis (reference value: 10.88 +/- 0.55 %); format: functional, CD4+T cell
[20] = test system: Mus musculus; assay: Induction of Treg response in silica-induced C57BL/6 mouse lung inflammation and fibrosis model assessed as increase in level of CD4+T cells coexpressing Foxp3 in spleen at 2 mg, ip administered every day measured on day 56 by flow cytometric analysis (reference value: 10 +/- 0.53 %); format: functional, CD4+T cell
[21] = test system: Mus musculus; assay: Induction of Treg response in silica-induced C57BL/6 mouse lung inflammation and fibrosis model assessed as increase in TGF-beta mRNA expression at 2 mg, ip administered every day measured on day 7 by real time RT-PCR method relative to silica-treated control; format: functional, organism-based
[22] = test system: Mus musculus; assay: Induction of Treg response in silica-induced C57BL/6 mouse lung inflammation and fibrosis model assessed as increase in Foxp3 mRNA expression in lung at 2 mg, ip administered every day measured on day 28, 56 by real time RT-PCR method relative to silica-treated control; format: functional, organism-based
[23] = test system: Mus musculus; assay: Induction of Treg response in silica-induced C57BL/6 mouse lung inflammation and fibrosis model assessed as increase in IL-10 mRNA expression in lung at 2 mg, ip administered every day measured on day 7, 28 by real time RT-PCR method relative to silica-treated control; format: functional, organism-based
[24] = test system: Mus musculus; assay: Inhibition of Th1 response in silica-induced C57BL/6 mouse lung inflammation and fibrosis model assessed as decrease in IFN-gamma mRNA expression in lung at 2 mg, ip administered every day measured on day 7 by real time RT-PCR method relative to silica-treated control; format: functional, organism-based
[25] = test system: Mus musculus; assay: Inhibition of Th1 response in silica-induced C57BL/6 mouse lung inflammation and fibrosis model assessed as decrease in level of CD4+T cells coexpressing IFNgamma at 2 mg, ip administered every day measured on day 7 by flow cytometric analysis; format: functional, organism-based; conditions: CD4+T cell
[26] = test system: Mus musculus; assay: Inhibition of Th1 response in silica-induced C57BL/6 mouse lung inflammation and fibrosis model assessed as decrease in TNFalpha mRNA expression in bronchoalveolar lavage fluid at 2 mg, ip administered every day measured on day 7 by real time RT-PCR method; format: functional, organism-based
[27] = test system: Mus musculus; assay: Inhibition of Th2 response in silica-induced C57BL/6 mouse lung inflammation and fibrosis model assessed as decrease in GATA-3 mRNA expression in lung at 2 mg, ip administered every day measured on day 7, 56 by real time RT-PCR method relative to silica-treated control; format: functional, organism-based
[28] = test system: Mus musculus; assay: Inhibition of Th2 response in silica-induced C57BL/6 mouse lung inflammation and fibrosis model assessed as decrease in IL-4 level in bronchoalveolar lavage fluid at 2 mg, ip administered every day measured on day 7, 28, 56 by cytometric bead array method relative to silica-treated control; format: functional, organism-based
[29] = test system: Mus musculus; assay: Inhibition of Th17 cell differentiation in silica-induced C57BL/6 mouse lung inflammation and fibrosis model assessed as decrease in IL-6 mRNA expression in lung at 2 mg, ip administered every day measured on day 7 by real time RT-PCR method relative to silica-treated control; format: functional, organism-based
[30] = test system: Mus musculus; assay: Inhibition of Th17 cell differentiation in silica-induced C57BL/6 mouse lung inflammation and fibrosis model assessed as decrease in IL-6 mRNA expression in lung at 2 mg, ip administered every day measured on day 28, 56 by real time RT-PCR method relative to silica-treated control; format: functional, organism-based
[31] = test system: Mus musculus; assay: Inhibition of Th17 cell differentiation in silica-induced C57BL/6 mouse lung inflammation and fibrosis model assessed as decrease in IL-6 protein level in bronchoalveolar lavage fluid at 2 mg, ip administered every day measured on day 7 by cytometric bead array method relative to silica-treated control; format: functional, organism-based
[32] = test system: Mus musculus; assay: Inhibition of Th17 cell differentiation in silica-induced C57BL/6 mouse lung inflammation and fibrosis model assessed as decrease in IL-6 protein level in bronchoalveolar lavage fluid at 2 mg, ip administered every day measured on day 28 to 56 by cytometric bead array method; format: functional, organism-based
[33] = test system: Mus musculus; assay: Inhibition of Th17 cell differentiation in silica-induced C57BL/6 mouse lung inflammation and fibrosis model assessed as increase in IL-23 mRNA expression in lung at 2 mg, ip administered every day measured on day 7 by real time RT-PCR method relative to silica-treated control; format: functional, organism-based
[34] = test system: Mus musculus; assay: Inhibition of Th17 cell differentiation in silica-induced C57BL/6 mouse lung inflammation and fibrosis model assessed as increase in IL-23 mRNA expression in lung at 2 mg, ip administered every day measured on day 28, 56 by real time RT-PCR method relative to silica-treated control; format: functional, organism-based
[35] = test system: Mus musculus; assay: Induction of Treg response in silica-induced C57BL/6 mouse lung inflammation and fibrosis model assessed as increase in Foxp3 mRNA expression in spleen at 2 mg, ip administered every day measured on day 7, 28 by real time RT-PCR method relative to silica-treated control; format: functional, organism-based
[36] = test system: Mus musculus; assay: Inhibition of Th1 response in silica-induced C57BL/6 mouse lung inflammation and fibrosis model assessed as decrease in IFN-gamma mRNA expression in spleen at 2 mg, ip administered every day measured on day 7, 28 by real time RT-PCR method relative to silica-treated control; format: functional, organism-based

## O=C(O)[C@H]1O[C@@H](Oc2cc3oc(-c4ccccc4)cc(=O)c3c(O)c2O)[C@H](O)[C@@H](O)[C@@H]1O [BAICALIN]
[1]
  Activity: Active
[2]
  Activity: Active
[3]
  Activity: Active
[4]
  Activity: inactive
[5]
  Activity: Active
[6]
  Activity: Active
[7]
  inhibition: Active
[8]
  IL-17A+ CD4+ T cells: 0.46%
[9]
  IL-17A+ CD4+ T cells: 0.5%
[10]
  IL-17A+ CD4+ T cells: 0.42%
[11]
  IL-17A+ CD4+ T cells: 0.42%
[12]
  IL-17A+ CD4+ T cells: 0.4%
[13]
  inhibition: Active
[14]
  inhibition: Active
[15]
  Activity: 15.92%
[16]
  Activity: 13.72%
[17]
  Activity: 10.3%
[18]
  Activity: 17.4%
[19]
  Activity: 14.34%
[20]
  Activity: 11.76%
[21]
  Activity: Active
[22]
  Activity: Active
[23]
  Activity: Active
[24]
  inhibition: Active
[25]
  inhibition: Active
[26]
  inhibition: Active
[27]
  inhibition: Active
[28]
  inhibition: Active
[29]
  inhibition: Active
[30]
  inhibition: inactive
[31]
  inhibition: Active
[32]
  inhibition: inactive
[33]
  inhibition: inactive
[34]
  inhibition: Active
[35]
  Activity: Active
[36]
  inhibition: Active
